Molecules are shown by their SMILES. Several values for one entry are separate records, joined by “and”; a condition that tells them apart may be missing. Equal values may be shown once.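 How tested: cells in 96-well plates exposed to compound for 48 hours at five concentrations. Abbreviation: GI50, concentration required for 50% inhibition of growth. The concentration for full growth arrest is given as TGI.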

Test systems include A498 renal; CAKI-1 renal; CCRF-CEM leukemia; HCT-15 colon; KM12 colon; NCI-H522 lung; RPMI-8226 leukemia; SK-MEL-28 melanoma; SK-MEL-5 melanoma; SR leukemia.
What all share (assay): NCI anticancer screen, dose series, 48 h

For the molecule `Cn1cccc1C1CC(=O)N(CCC[Se]C#N)C1=O` (stereo unspecified), the GI50 with A498 renal is 1.3 µM; with CAKI-1 renal it was 1.92 µM; with CCRF-CEM leukemia it was 2.22 µM; with HCT-15 colon it was 2.35 µM; with KM12 colon, 2.11 µM; in the test with NCI-H522 lung, 1.87 µM. For the same molecule, the GI50 in the test with RPMI-8226 leukemia is 2.2 µM; in the test on SK-MEL-28 melanoma, 2.24 µM; in the test with SK-MEL-5 melanoma, 1.96 µM; with SR leukemia, 2.76 µM. The TGI worked out at 2.78 µM in the test with A498 renal; 3.57 µM in the test on CAKI-1 renal; 7.66 µM with CCRF-CEM leukemia; 6.43 µM in the test with HCT-15 colon; 5.36 µM with KM12 colon; 4.04 µM with NCI-H522 lung. The TGI in the test on RPMI-8226 leukemia is 5.04 µM; in the test with SK-MEL-28 melanoma it was 5.96 µM; with SK-MEL-5 melanoma it was 4.05 µM; in the test on SR leukemia it was above 100 µM.
Consider `Cn1c(=O)c2c(nc3n2C(CCl)CO3)n(C)c1=O` (stereo unspecified), for which the TGI with A498 renal, in the test on CAKI-1 renal, with CCRF-CEM leukemia, in the test on HCT-15 colon, in the test on KM12 colon and in the test on NCI-H522 lung was above 100 µM in each case. In addition, the TGI with RPMI-8226 leukemia, in the test with SK-MEL-28 melanoma, in the test with SK-MEL-5 melanoma and with SR leukemia was above 100 µM in each case.
On to `Cc1ccc2c(c1)/C(=N\N=C/c1cn(C(C)C)c3ccccc13)C(=O)N2`, for which the GI50 with A498 renal was 1.6 µM; in the test with CAKI-1 renal, 2.6 µM; with CCRF-CEM leukemia, 0.367 µM; in the test with HCT-15 colon, 2.12 µM; in the test with KM12 colon, 5.5 µM; with NCI-H522 lung it was 1.05 µM. For the same molecule, the GI50 is 0.396 µM with RPMI-8226 leukemia, 21.9 µM in the test on SK-MEL-28 melanoma, 4.57 µM in the test with SK-MEL-5 melanoma and 0.261 µM in the test on SR leukemia. The TGI with A498 renal, with CAKI-1 renal, with CCRF-CEM leukemia, in the test with HCT-15 colon, with KM12 colon and in the test with NCI-H522 lung was above 100 µM throughout. The TGI was 7.31 µM in the test on RPMI-8226 leukemia, above 100 µM in the test with SK-MEL-28 melanoma, above 100 µM in the test on SK-MEL-5 melanoma and above 100 µM in the test with SR leukemia.
Consider `CC(=O)NNc1nc(C)c(C(/C=C/c2ccc3c(c2)OCO3)=N/NC(=O)c2ccncc2)s1`, for which the TGI in the test with A498 renal, in the test with CAKI-1 renal, in the test with CCRF-CEM leukemia, in the test on HCT-15 colon, in the test with KM12 colon and with NCI-H522 lung was above 100 µM in each case. The TGI with RPMI-8226 leukemia, in the test on SK-MEL-28 melanoma, in the test on SK-MEL-5 melanoma and in the test on SR leukemia was above 100 µM in each case.
`C/C(=N\NC(=S)Nc1ccccc1)c1ccccn1`: the GI50 in the test on A498 renal is 0.207 µM; in the test with CAKI-1 renal, 0.185 µM; in the test on CCRF-CEM leukemia it was below 0.01 µM; with HCT-15 colon it was 0.0338 µM; with KM12 colon, 0.143 µM; in the test on NCI-H522 lung, 0.207 µM. The GI50 with RPMI-8226 leukemia was 0.0296 µM; with SK-MEL-28 melanoma, 1.68 µM; with SK-MEL-5 melanoma, 0.199 µM; with SR leukemia it was 0.0703 µM. For the same molecule, the TGI with A498 renal was 1.64 µM; with CAKI-1 renal, 8.74 µM; in the test with CCRF-CEM leukemia it was above 100 µM; in the test on HCT-15 colon, 13.2 µM; in the test with KM12 colon it was 2.29 µM; in the test with NCI-H522 lung, 1.61 µM. In addition, the TGI is 39.3 µM with RPMI-8226 leukemia, 4.94 µM in the test on SK-MEL-28 melanoma, 1.56 µM in the test with SK-MEL-5 melanoma and 11.3 µM with SR leukemia.
In the case of `C=C1C(=O)C23C(O)C1CCC2C12CO[C@]3(O)[C@@H](O)C1C(C)(C)CCC2O` (stereo partly specified), the TGI in the test on A498 renal came out at 36.5 µM; in the test on CAKI-1 renal, 28.5 µM; in the test with CCRF-CEM leukemia, 5.98 µM; with HCT-15 colon it was 26.4 µM; with KM12 colon, 31.7 µM; in the test with NCI-H522 lung, 2.15 µM. The TGI with RPMI-8226 leukemia is above 100 µM; in the test with SK-MEL-28 melanoma, 11.4 µM; in the test with SK-MEL-5 melanoma it was 37 µM; in the test on SR leukemia, above 100 µM.
As for `O=C(O)Cc1ccccc1`, the GI50 with A498 renal, with CAKI-1 renal, with CCRF-CEM leukemia, with HCT-15 colon, in the test on KM12 colon and in the test on NCI-H522 lung was above 1000 µM each time. Also, the GI50 in the test with SK-MEL-28 melanoma and in the test on SK-MEL-5 melanoma was above 1000 µM each time. For the same molecule, the TGI with A498 renal was > 1000 µM and 1700 µM; in the test on CAKI-1 renal it was above 1000 µM; in the test on CCRF-CEM leukemia, above 2000 µM; with HCT-15 colon, > 1000 µM and 1710 µM; in the test on KM12 colon, above 2000 µM; with NCI-H522 lung it was above 2000 µM. In addition, the TGI with RPMI-8226 leukemia was 1420 µM; with SK-MEL-28 melanoma, above 2000 µM; with SK-MEL-5 melanoma it was above 2000 µM; in the test on SR leukemia it was above 1000 µM.
Turning to `O=[N+]([O-])c1ccc([I+]c2ccccc2)cc1`, the TGI was 6.49 µM and 5.48 µM in the test on A498 renal; 15 µM and 1.58 µM in the test on CAKI-1 renal; > 100 µM and 10.9 µM with CCRF-CEM leukemia; 18.3 µM and 23.4 µM in the test on HCT-15 colon; 9.64 µM and 3.15 µM in the test with KM12 colon; 4.2 µM and 3.03 µM with NCI-H522 lung. The TGI with RPMI-8226 leukemia was 47.2 µM and 54.2 µM; with SK-MEL-28 melanoma, 10.1 µM and 4.57 µM; in the test on SK-MEL-5 melanoma, 21.2 µM and 2.93 µM; in the test with SR leukemia, above 47.8 µM. In addition, the GI50 in the test on CAKI-1 renal is 0.289 µM; with CCRF-CEM leukemia, 3.21 µM; in the test on HCT-15 colon it was 8.9 µM; in the test with KM12 colon it was 1.67 µM; with NCI-H522 lung it was 1.52 µM; in the test on RPMI-8226 leukemia, 4.64 µM. In addition, the GI50 is 1.92 µM with SK-MEL-28 melanoma and 1.54 µM in the test with SK-MEL-5 melanoma.
On to `CC1(C)OCC(C2OC(On3nnc4ccc(Cl)cc43)C3OC(C)(C)OC23)O1` (stereo unspecified), for which the TGI with A498 renal, in the test with CAKI-1 renal, in the test with CCRF-CEM leukemia, in the test with HCT-15 colon, with KM12 colon and in the test with NCI-H522 lung was above 100 µM in each case. Moreover, the TGI in the test with RPMI-8226 leukemia, with SK-MEL-28 melanoma, in the test with SK-MEL-5 melanoma and in the test on SR leukemia was above 100 µM in each case.

(Values after PubChem BioAssay (NCI).)
